Test results published in patent US10640486B2, “Heteroarylcarboxamide derivatives as plasma kallikrein inhibitors” (Boehringer Ingelheim International GmbH, priority 2015, dated 2020).

target: human Plasma Kallikrein (KLKB1) (Homo sapiens (Human), UniProt P03952); experiment: Inhibition of KLKB1 endpoint assay; format: biochemical; details: fluorogenic substrate H-Pro-Phe-Arg-AMC, 1 hr at Room Temperature, read-out: IC50 measurements for the inhibition of human Plasma Kallikrein (KLKB1)
Protocol: The ability of compounds of Formula I to inhibit plasma kallikrein (KLKB1), Factor XIIa (FXIIa), Factor XIa (FXIa), Factor Xa (FXa), Factor IIa (alpha-thrombin; FIIa), plasmin, trypsin, tissue kallikrein 1 (KLK1), Factor VIIa (FVIIa), or FVIIa complexed with Tissue Factor, phospholipids and CaCl2 (FVIIa/TF/PL/CaCl2) was determined using the following biochemical assays in assay buffer (100 mM Tris, 150 mM NaCL, adjusted to a pH of 7.8 with HCl, and containing 0.1% (w/v) BSA and 0.05% (v/v) Tween20) in the presence of 1% (v/v) DMSO:
Evaluation of the Inhibition of KLKB1 Using an Endpoint Assay
Subsequently, PPACK II (Calbiochem) was added as a stop solution to achieve a final concentration of 1 μM and fluorescence was measured using an Envision Reader (PerkinElmer) with the wavelength excitation setting of 355 nm and the wavelength emission setting of 460 nm.
The IC50 values were obtained with the aid of the inhibition of KLKB1 endpoint assay described above.

human Plasma Kallikrein (KLKB1), sequence (P03952 391-638): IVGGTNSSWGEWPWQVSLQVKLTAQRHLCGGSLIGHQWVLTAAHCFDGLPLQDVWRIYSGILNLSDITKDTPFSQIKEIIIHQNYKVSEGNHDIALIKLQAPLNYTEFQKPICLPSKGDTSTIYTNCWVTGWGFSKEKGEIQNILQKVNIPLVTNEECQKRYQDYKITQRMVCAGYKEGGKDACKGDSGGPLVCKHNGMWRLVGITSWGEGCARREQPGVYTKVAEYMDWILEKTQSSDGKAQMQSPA
human Plasma Kallikrein (KLKB1), sequence (P03952 20-390 partner): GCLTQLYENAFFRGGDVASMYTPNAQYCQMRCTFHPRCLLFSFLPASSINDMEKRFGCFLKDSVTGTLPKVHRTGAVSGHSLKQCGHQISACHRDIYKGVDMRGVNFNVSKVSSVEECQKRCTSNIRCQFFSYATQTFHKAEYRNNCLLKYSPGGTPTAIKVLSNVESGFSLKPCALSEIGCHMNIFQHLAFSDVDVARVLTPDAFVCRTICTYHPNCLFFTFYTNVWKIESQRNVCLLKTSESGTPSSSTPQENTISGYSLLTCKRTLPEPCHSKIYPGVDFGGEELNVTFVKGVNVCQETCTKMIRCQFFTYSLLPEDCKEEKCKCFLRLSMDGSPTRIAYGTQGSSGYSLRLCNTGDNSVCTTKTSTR

IC50 [nM]	SMILES
3000	Nc1ccc2c(n1)CCC2NC(=O)c1cn(Cc2ccc(N3CC4CCCN4C3=O)cc2)nn1 (stereo not shown) [Example 63, 1-[4-(3-Oxo-tetrahydro-pyrrolo[1,2-c]imidazol-2-yl)-benzyl]-1H-[1,2,3]triazole-4-carboxylic acid (2-amino-6,7-dihydro-5H-[1]pyrindin-5-yl)-amide]
580	Nc1ccc2c(n1)CCC2NC(=O)c1cn(Cc2ccc(CN3CCC4(CC4)C3=O)cc2)nn1 (stereo not shown) [Example 64, 1-[4-(4-Oxo-5-aza-spiro[2.4]hept-5-ylmethyl)-benzyl]-1H-[1,2,3]triazole-4-carboxylic acid (2-amino-6,7-dihydro-5H-[1]pyrindin-5-yl)-amide]
1100	Nc1ccc2c(n1)CCC2NC(=O)c1cn(Cc2ccc(N3CC4CC4C3=O)cc2)nn1 (stereo not shown) [Example 65, 1-[4-(2-Oxo-3-aza-bicyclo[3.1.0]hex-3-yl)-benzyl]-1H-[1,2,3]triazole-4-carboxylic acid (2-amino-6,7-dihydro-5H-[1]pyrindin-5-yl)-amide]
18	Cc1cc(Cn2cc(C(=O)N[C@@H]3CCc4nc(N)ccc43)cn2)ccc1CN1CC2CC2C1=O (stereo partly drawn) [Example 66, 1-[3-Methyl-4-(2-oxo-3-aza-bicyclo[3.1.0]hex-3-ylmethyl)-benzyl]-1H-pyrazole-4-carboxylic acid ((R)-2-amino-6,7-dihydro-5H-[1]pyrindin-5-yl)-amide]
55	Cc1cc(CN2CC3CC3C2=O)ccc1Cn1cc(C(=O)N[C@@H]2CCc3nc(N)ccc32)cn1 (stereo partly drawn) [Example 69, 1-[2-Methyl-4-(2-oxo-3-aza-bicyclo[3.1.0]hex-3-ylmethyl)-benzyl]-1H-pyrazole-4-carboxylic acid ((R)-2-amino-6,7-dihydro-5H-[1]pyrindin-5-yl)-amide]
> 10000	Nc1ccc2c(n1)CCC2NC(=O)c1cn(Cc2cccc(N3CCN4CCCCC4C3=O)c2)nn1 (stereo not shown) [Example 70, 1-[3-(1-Oxo-octahydro-pyrido[1,2-a]pyrazin-2-yl)-benzyl]-1H-[1,2,3]triazole-4-carboxylic acid (2-amino-6,7-dihydro-5H-[1]pyrindin-5-yl)-amide]
8	Nc1ccc2c(n1)CC[C@H]2NC(=O)c1cnn(Cc2ccc(N3CC4CC4C3)nc2)c1 (stereo partly shown) [Example 76]
2	Nc1nccc2c1CC[C@H]2NC(=O)c1cn(Cc2ccc(N3CC4CC4C3)nc2)nc1C(F)(F)F (stereo partly shown) [Example 77]
21	Nc1ccc2c(n1)CC[C@H]2NC(=O)c1cn(Cc2ccc(N3CC4CC4C3)nc2)nc1C(F)(F)F (stereo partly shown) [Example 78]
8	Nc1nccc2c1CC[C@H]2NC(=O)c1cnn(Cc2ccc(N3CC4CCC4C3)nc2)c1 (stereo partly shown) [Example 79]
3	Nc1nccc2c1CC[C@H]2NC(=O)c1cnn(Cc2cnc(N3CC4CC4C3)nc2)c1 (stereo partly shown) [Example 80]
19	Nc1ccc2c(n1)CC[C@H]2NC(=O)c1cnn(Cc2cnc(N3CC4CC4C3)nc2)c1 (stereo partly shown) [Example 81]
7	Nc1nccc2c1CC[C@H]2NC(=O)c1cn(Cc2cnc(N3CC4CC4C3)nc2)nn1 (stereo partly shown) [Example 82]
73	Nc1ccc2c(n1)CC[C@H]2NC(=O)c1cn(Cc2cnc(N3CC4CC4C3)nc2)nn1 (stereo partly shown) [Example 83]
1	Nc1nccc2c1CC[C@H]2NC(=O)c1cnn(Cc2ccc(N3CC4C(C3)C4(F)F)nc2)c1 (stereo partly shown) [Example 84]
4	Nc1nccc2c1CC[C@H]2NC(=O)c1cnn(Cc2cnc(N3CC4CC4C3)cn2)c1 (stereo partly shown) [Example 85]
34	Nc1ccc2c(n1)CC[C@H]2NC(=O)c1cnn(Cc2cnc(N3CC4CC4C3)cn2)c1 (stereo partly shown) [Example 86]
3200	Cc1cc(N)nc2c1C(NC(=O)c1cn(Cc3ccc(N4CC5COCCN5C4=O)cc3)nn1)CC2 (stereo not shown) [Example 87, 1-[4-(3-Oxo-tetrahydro-imidazo[5,1-c][1,4]oxazin-2-yl)-benzyl]-1H-[1,2,3]triazole-4-carboxylic acid (2-amino-4-methyl-6,7-dihydro-5H-[1]pyrindin-5-yl)-amide]
5	Nc1nccc2c1CC[C@H]2NC(=O)c1cnn(Cc2ccc(N3CCC4(CC4)C3)nc2)c1 [Example 89]
78	Nc1nccc2c1CC[C@H]2NC(=O)c1cnn(Cc2ccc(N3CC4(COC4)C3)nc2)c1 [Example 90]
38	Nc1nccc2c1CC[C@H]2NC(=O)c1cnn(Cc2ccc(N3C[C@@H]4[C@@H](CO)[C@@H]4C3)nc2)c1 [Example 91]
23	Nc1ccc2c(n1)CC[C@H]2NC(=O)c1cn(Cc2cnc(N3CC4CC4C3)nc2)nc1C(F)(F)F (stereo partly shown) [Example 92]

SMILES	IC50 [nM]
CC(c1ccc(N2CC3CC3C2)nc1)n1cc(C(=O)N[C@@H]2CCc3c2ccnc3N)cn1 (stereo partly drawn) [Example 71, 1-{1-[6-(3-Aza-bicyclo[3.1.0]hex-3-yl)-pyridin-3-yl]-ethyl}-1H-pyrazole-4-carboxylic acid ((R)-1-amino-6,7-dihydro-5H-[2]pyrindin-5-yl)amide]	9
Nc1nccc2c1CC[C@H]2NC(=O)c1cnn(C2(c3ccc(N4CC5CC5C4)nc3)CC2)c1 (stereo partly drawn) [Example 74, 1-{1-[6-(3-Aza-bicyclo[3.1.0]hex-3-yl)-pyridin-3-yl]-cyclopropyl}-1H-pyrazole-4-carboxylic acid ((R)-1-amino-6,7-dihydro-5H-[2]pyrindin-5-yl)amide]	41
Nc1nccc2c1CC[C@H]2NC(=O)c1cnn(Cc2ccc(N3CC4CC4C3)nc2)c1 (stereo partly drawn) [Example 75, 1-[6-(3-Aza-bicyclo[3.1.0]hex-3-yl)-pyridin-3-ylmethyl]-1H-pyrazole-4-carboxylic acid ((R)-1-amino-6,7-dihydro-5H-[2]pyrindin-5-yl)amide]	1
